Several values for one entry are separate records, joined by “and”; a condition that tells them apart may be missing. Equal values may be shown once.
Test: LC/MS measurement of lidocaine and its metabolite MEGX in cerebrospinal fluid of lidocaine-administered subjects
Assay type: in vivo, human
Conditions: for Lidocaine peak ratio to lysine / Lidocaine peak ratio to lysine, average: cerebrospinal fluid; for Lidocaine peak ratio to lysine: individual samples, lidocaine hydrochloride standard dose 200 mg at the puncture site, LC/MS; for concentration detected in cerebrospinal fluid, AD patients versus healthy subjects: cerebrospinal fluids, result in words
Method: Cerebrospinal fluids of 17 Alzheimer's disease patients (10 male and 7 female Caucasions) and 17 healthy subjects of similar age, sex and race were used as samples. The samples were collected under epidural anesthesia with lidocaine (lidocaine hydrochloride (standard dose: 200 mg) was hypodermically administered at the puncture site). Protein components were removed from 150 microliters of each cerebrospinal fluid by using an ultrafiltration filter of 5000 NMWL (Ultrafree-MC BIOMAX-5, UFC3BCC00, produced by Millipore). To the cerebrospinal fluid, 25 microliters of a solution containing L-Valine-^13C5, ^15N or L-Lysine-^13C5, ^15N as an internal standard substance (0.1% formic acid, 50% methanol solvent) and 800 microliters of a 0.15% hydrochloric acid solution were added. This sample solution was applied to a solid phase extraction column, Oasis MCX (10 mg), produced by Waters. Washing was performed with 1 mL of water first, then with 1 mL of 50% methanol solvent containing 0.1% formic acid, subsequently with 1 mL of water, and with 1 mL of methanol. Then, elution was performed with 1 mL of a mixture of 25% aqueous ammonia and methanol (2:3, v/v), the eluate was dried, the residue was dissolved again in 25 microliters of 50% methanol, and insoluble substances were removed by using a PVDF membrane filter having a pore size of 0.22 micrometer to prepare a sample for LC/MS.
As for the material packed in the LC column, Primesep A resin (particle size: 5 micrometers, pore size: 100 angstroms) of SIELC Technologies (Prospect Heights, Ill.) was packed in a fused silica capillary having an internal diameter of 150 micrometers (internal surface was treated with TC-WAX, produced by GL Sciences, catalog number: 1010-27012) of which tip was tapered to a diameter of about 8 micrometers beforehand with a laser-based puller P-2000 (produced by Sutter) at a height of about 15 cm under a nitrogen gas pressure of about 7 MPa, and this was used as a column. 50% Methanol containing 0.1% formic acid was used as a mobile phase A, and 90% methanol containing 2% trifluoroacetic acid in addition to 0.1% formic acid was used as a mobile phase B. The concentration gradient of the mobile phase B was, from the start of elution, as follows: 0 minute (0%)-5 minutes (0%)-25 minutes (25%)-25.1 minutes (50%)-50 minutes (100%)-60 minutes (100%), and the flow rate was 1 microliter per minute. Since valine as the internal standard substance was eluted in a period of 5 to 25 minutes, and lysine as the internal standard substance was eluted in a period of 25 to 50 minutes, either one of the internal standard substances was appropriately used for quantification of each substance depending on the elution time. Qstar Pulsar i produced by Applied Biosystems was used in the cation detection mode as the mass spectrometer with an applied voltage of 2400 volts at a DP value of 10 and an IP value of 100 for improving the sensitivity to perform the measurement for the scanning range of 50 to 700 amu.
Further, by the MS/MS measurement, m/z 86.08 and m/z 58.06 were obtained from the former and the latter, respectively, as the product ions. The former was estimated to be that of lidocaine, and the latter was estimated to be that of MEGX, which is a metabolite of lidocaine. Therefore, specimens of these substances were obtained, and measured under the same LC/MS conditions. As a result, the same retention times and mass spectra were obtained, and thus it was confirmed that these peaks were those of lidocaine and MEXG.

| Compound | Lidocaine peak ratio to lysine (AD patient) | Lidocaine peak ratio to lysine, average (average of 17 AD patients) | Lidocaine peak ratio to lysine, average (average of 17 healthy controls) | Lidocaine peak ratio to lysine (healthy control) | concentration detected in cerebrospinal fluid, AD patients versus healthy subjects |
| --- | --- | --- | --- | --- | --- |
| CCN(CC)CC(=O)Nc1c(C)cccc1C [Lidocaine, lidocaine] | 0.842 and 0.040 and 0.059 and 0.035 and 0.396 and 0.030 and 0.000 (2×) and 0.086 and 0.061 and 0.055 and 0.107 and 0.745 and 0.021 and 0.143 and 0.015 and 0.277 | 0.2 | 1.427 | 1.40 and 0.83 and 2.29 and 1.20 and 1.72 and 2.84 and 1.53 and 0.96 and 0.91 and 1.79 and 1.50 and 0.72 and 1.09 and 1.31 and 0.98 and 0.67 and 2.54 | AD patient-specific low concentrations |
| CCNCC(=O)Nc1c(C)cccc1C [MEGX, monoethylglycinexylidide] |  |  |  |  | AD patient-specific low concentrations |

From patent US20110065202A1, “Method for Examination of Alzheimer's Disease” (EISAI R&D MANAGEMENT CO., LTD., priority 2008, published 2011)
